≈ marks a conversion by molar mass, not a printed value. Like-named read-outs stand apart in the source and are kept apart here.
Experiments:
[1] = test system: 48 rhinovirus types and coxsackievirus A21, B3, enterovirus 70 and echovirus 11; details: cell culture; cited from earlier work
[2] = clinical studies; cited from earlier work
in vitro = details: human
Coxsackie A24(HG) = experiment: CPE inhibition assay, Coxsackie A24(HG); assay type: cell-based; details: MRC5, 48 h; MRC-5, 37° C., 2 days, FDA
Poliovirus 3 = experiment: microbe, parasite or virus in culture; assay type: cell-based; details: Enterovirus C
Coxsackie A24(DN) = experiment: CPE inhibition assay, Coxsackie A24(DN); assay type: cell-based; details: MRC5, 48 h; MRC-5, 37° C., 2 days, FDA
Rhino 70 = experiment: Multicycle CPE reduction assay, Rhino 70; assay type: cell-based; details: HeLa, read-out: Rhino 70 EC50, incubation at 37° C. in HeLa cells
Method: (§1) The test compounds were evaluated for anti-picornavirus activity by a multicycle cytopathic effect (CPE) reduction assay. The antiviral activity was initially determined using an MTS [3-(4,5-dimethylthiazol-2-yl)-5-(3-carboxymethoxyphenyl)-2-(4-sulfophenyl-2H-tetrazolium]-based CPE reduction assay.
(§2) In this regard, cells grown to confluence in 96-well plates were infected with 100 50% cell culture infective doses (CCID50) of virus. After an adsorption period of 2 hrs at 37° C., virus was removed and serial dilutions of the compounds were added. […] After removal of the medium, 90 μl of a culture medium and 10 μl of MTS-phenazine methosulfate (Promega, Leiden, The Netherlands) were added to each well. After an incubation period of 2 hrs at 37° C., the optical density (OD) of each well was read at 498 nm in a microplate reader.
(§3) CPE values for evaluating antiviral activity were calculated using the following Mathematic Formula 3: […]
(§4) The 50% effective concentration (EC50) and the 50% cytotoxic concentration (CC50) were defined as the concentrations of compound that offered 50% protection against virus-induced CPE and that killed cells by 50%, respectively, and were calculated using logarithmic interpolation.

Rhino 29 = experiment: Multicycle CPE reduction assay, Rhino 29; assay type: cell-based; details: incubation at 37° C. in HeLa cells
Method: as §1, §2, §3, §4

Rhino 86 = experiment: Multicycle CPE reduction assay, Rhino 86; assay type: cell-based; details: incubation at 37° C. in HeLa cells
Method: as §1, §2, §3, §4

[3] = Cytotoxicity (CC50), MTS-based assay (Experimental Example 2); assay type: cell-based
Method: as §1, §2
CPE values for evaluating cytotoxicity were calculated using the following Mathematic Formula 4: […]
as §4

Rhino 63 = experiment: Multicycle CPE reduction assay, Rhino 63; assay type: cell-based; details: incubation at 37° C. in HeLa cells
Method: as §1, §2, §3, §4

Rhino 59 = experiment: Multicycle CPE reduction assay, Rhino 59; assay type: cell-based; details: incubation at 37° C. in HeLa cells
Method: as §1, §2, §3, §4

Entero 71 = experiment: Multicycle CPE reduction assay, Entero 71; assay type: cell-based; details: incubation at 37° C. in RD cells
Method: as §1, §2, §3, §4

Rhino 39 = experiment: Multicycle CPE reduction assay, Rhino 39; assay type: cell-based; details: incubation at 37° C. in HeLa cells
Method: as §1, §2, §3, §4

Polio 3 = experiment: organism not typed; assay type: cell-based; details: BGM, read-out: Polio 3 EC50
Rhino 72 = experiment: Multicycle CPE reduction assay, Rhino 72; assay type: cell-based; details: incubation at 37° C. in HeLa cells
Method: as §1, §2, §3, §4

Rhino 85 = experiment: Multicycle CPE reduction assay, Rhino 85; assay type: cell-based; details: incubation at 37° C. in HeLa cells
Method: as §1, §2, §3, §4

Echo 11 = experiment: Multicycle CPE reduction assay, Echo 11; assay type: cell-based; details: BGM, read-out: Echo 11 EC50
Method: as §1, §2, §3, §4

Rhino 45 = experiment: Multicycle CPE reduction assay, Rhino 45; assay type: cell-based; details: HeLa, incubation at 37° C. in HeLa cells
Method: as §1, §2, §3, §4

Rhino 2 = experiment: Multicycle CPE reduction assay, Rhino 2; assay type: cell-based; details: incubation at 37° C. in HeLa cells
Method: as §1, §2, §3, §4

Rhino 89 = experiment: Multicycle CPE reduction assay, Rhino 89; assay type: cell-based; details: HeLa, read-out: Rhino 89 EC50
Method: as §1, §2, §3, §4

Rhino 15 = experiment: Multicycle CPE reduction assay, Rhino 15; assay type: cell-based; details: incubation at 37° C. in HeLa cells
Method: as §1, §2, §3, §4

Rhino 41 = experiment: Multicycle CPE reduction assay, Rhino 41; assay type: cell-based; details: incubation at 37° C. in HeLa cells
Method: as §1, §2, §3, §4

Polio 2 = experiment: organism not typed; assay type: cell-based; details: BGM, read-out: Polio 2 EC50
Polio 1 = experiment: organism not typed; assay type: cell-based; details: BGM, read-out: Polio 1 EC50
Rhino 9 = experiment: Multicycle CPE reduction assay, Rhino 9; assay type: cell-based; details: incubation at 37° C. in HeLa cells
Method: as §1, §2, §3, §4

Coxsackie A9 = experiment: Multicycle CPE reduction assay, Coxsackie A9; assay type: cell-based; details: incubation at 37° C. in BGM cells
Method: as §1, §2, §3, §4

Rhino 42 = experiment: Multicycle CPE reduction assay, Rhino 42; assay type: cell-based; details: incubation at 37° C. in HeLa cells
Method: as §1, §2, §3, §4

[4] = test system: mock-infected cells (HeLa, MRC-5, RD); details: human
[5] = cited from earlier work; for metabolization and excretion / bioavailability: in vivo
rhinovirus infections = details: treatment of rhinovirus infections; cited from earlier work
[6] = in vivo; cited from earlier work
[7] = cited from earlier work
[8] = HeLa37, 48 h, read-out: Poliovirus 3 EC50

Compound: CCOC(=O)/C=C/[C@H](C[C@@H]1CCNC1=O)NC(=O)[C@@H](CC(=O)[C@@H](NC(=O)c1cc(C)on1)C(C)C)Cc1ccc(F)cc1 [AG 7088]
- concentration range with antiviral effect [1]: nanomolar concentration range

Compound: CC(C)S(=O)(=O)n1c(N)nc2ccc(/C(=N/O)c3ccccc3)cc21 [Enviroxime]
- pharmacokinetics [2]: bad pharmacokinetics
- side effects [2]: unwanted side effects
- therapeutic effects [2]: insignificant or few therapeutic effects

Compound: CC(=O)O[C@@]12Oc3cc(C(C)C)ccc3[C@]1(OC(C)=O)C(=O)c1c(N)cccc12 [Example 47, 1-Amino-7-isopropyl-10-oxo-9b,10-dihydro-4bH-benzo[d]indeno[1,2-b]furane-4b,9b-diyl diacetate]
- CC50 (in vitro): 15.4 µg/mL
- EC50 (Coxsackie A24(HG)): < 0.01 µg/mL
- EC50 (Poliovirus 3; [8]): < 0.1 µg/mL
- EC50 (Poliovirus 3; read-out: Poliovirus3 EC50): < 0.1 µg/mL
- melting point: 220 to 223 °C
- EC50 (Coxsackie A24(DN)): 0.055 µg/mL

Compound: CCc1ccc2c(c1)OC1(O)c3cccc(N)c3C(=O)C21O (stereo not shown) [Example 50, 1-Amino-7-ethyl-4b,9b-dihydroxy-4b,9b-dihydro-5-oxa-indeno[2,1-a]inden-10-one]
- CC50 (in vitro): 49.9 µg/mL (≈ 168 µM)
- EC50 (Poliovirus 3; [8]): < 0.1 µg/mL
- EC50 (Poliovirus 3; read-out: Poliovirus3 EC50): < 0.1 µg/mL
- melting point: 200 to 203 °C

Compound: CC(C)c1ccc2c(c1)OC1(O)c3c(N)ccc(N)c3C(=O)C21O (stereo not shown) [Example 61, 1,4-diamino-4b,9b-dihydroxy-7-isopropyl-4bH-benzo[d]indeno[1,2-b]furan-10(9bH)-one]
- CC50 (in vitro; Picorana CC50): > 50 µg/mL
- melting point: 223 to 231 °C

Compound: CC(C)c1ccc2c(c1)OC1(O)c3ccc(N)c(N)c3C(=O)C21O (stereo not shown) [Example 62, 1,2-Diamino-4b,9b-dihydroxy-7-isopropyl-4bH-indeno[1,2-b]benzofuran-10(9bH)-one]
- CC50 (in vitro; Picorana CC50): > 50 µg/mL
- melting point: 163 to 166 °C

Compound: CC(=O)NC12C(=O)c3ccccc3C1(O)Oc1cc(C(C)C)ccc12 (stereo not shown) [Example 66, N-(4b-Hydroxy-7-isopropyl-10-oxo-4b,10-dihydro-5-oxa-indeno[2,1-a]inden-9b-yl)-acetamide]
- EC50 (Rhino 70): 57 ± 17 nM
- CC50 (in vitro; Picorana CC50): 44.7 µg/mL (≈ 133 µM)
- EC50 (Rhino 29): 6400 ± 830 nM
- EC50 (Rhino 86): 70 ± 6.6 nM
- CC50 at 3 days [3]: > 100000 nM
- EC50 (Rhino 63): > 10000 nM
- EC50 (Rhino 59): > 10000 nM
- EC50 (Entero 71): 25 ± 0.92 nM
- EC50 (Rhino 39): 1800 ± 370 nM
- EC50 (Polio 3): 580 ± 6.9 nM
- EC50 (Rhino 72): 130 ± 69 nM
- EC50 (Rhino 85): > 5800 nM
- EC50 (Echo 11): 7.2 ± 0.18 nM
- EC50 (Rhino 45): 1700 ± 460 nM
- EC50 (Rhino 2): 5900 ± 250 nM
- EC50 (Rhino 89): 630 ± 23 nM
- EC50 (Rhino 15): 4600 ± 1300 nM
- EC50 (Rhino 41): 600 ± 26 nM
- EC50 (Polio 2): 230 ± 20 nM
- EC50 (Polio 1): 690 ± 170 nM
- EC50 (Rhino 9): 2300 ± 700 nM
- EC50 (Coxsackie A9): 8.3 ± 0.43 nM
- EC50 (Rhino 42): 150 ± 23 nM

Compound: CC(C)c1ccc2c(c1)OC1(OCCO)c3ccccc3C(=O)C21O (stereo not shown) [Example 79, 9b-Hydroxy-4b-(2-hydroxyethoxy)-7-isopropyl-4bH-benzo[d]indeno[1,2-b]furan-10(9bH)-one]
- CC50 (in vitro; Picorana CC50): 10.4 µg/mL (≈ 30.6 µM)
- melting point: 100 to 105 °C

Compound: CC(C)c1ccc2c(c1)O[C@@]1(O)c3cccc([N+](=O)[O-])c3C(=O)[C@@]21O [Example 80, 4b,9b-Dihydroxy-7-isopropyl-1-nitro-4bH-benzo[d]indeno[1,2-b]furan-10(9bH)-one]
- CC50 (in vitro; Picorana CC50): 47.5 µg/mL (≈ 139 µM)
- melting point: 186 to 188 °C

Compound: COc1cc2c(cc1OC)[C@]1(O)Oc3cc(C(C)C)ccc3[C@]1(O)C2=O [Example 81, 4b,9b-Dihydroxy-7-isopropyl-2,3-dimethoxy-4bH-benzo[d]indeno[1,2-b]furan-10(9bH)-one]
- CC50 (in vitro; Picorana CC50): 8.61 µg/mL (≈ 24.2 µM)
- melting point: 127 to 129 °C

Compound: Cc1cc2c(cc1C)C1(O)Oc3cc(C(C)C)ccc3C1(O)C2=O (stereo not shown) [Example 82, 4b,9b-dihydroxy-7-isopropyl-2,3-dimethyl-4bH-benzo[d]indeno[1,2-b]furan-10(9bH)-one]
- CC50 (in vitro; Picorana CC50): 1.9 µg/mL (≈ 5.86 µM)
- melting point: 138 to 140 °C

Compound: COC(=O)N[C@@]12C(=O)c3ccccc3[C@]1(O)Oc1cc(C(C)C)ccc12 [Example 84, Methyl (4bS,9bS)-4b-hydroxy-7-isopropyl-10-oxo-9b,10-dihydro-4bH-benzo[d]indeno[1,2-b]furan-9b-ylcarbamate]
- CC50 (in vitro; Picorana CC50): > 50 µg/mL
- melting point: 161 to 163 °C

Compound: CC(=O)Nc1cccc2c1C(=O)[C@@]1(NC(C)=O)c3ccc(C(C)C)cc3O[C@@]21O [Example 87, N,N′-((4bS,9bS)-4b-Hydroxy-7-isopropyl-10-oxo-9b,10-dihydro-4bH-benzo[d]indeno[1,2-b]furane-1,9b-diyl)diacetamide]
- CC50 (in vitro; Picorana CC50): 36.8 µg/mL (≈ 93.2 µM)
- melting point: 205 to 207 °C

Compound: CC(C)c1ccc2c(c1)OC1(O)c3cccc(N)c3C(=O)C21NC(=O)c1[nH]nc2ccccc12 (stereo not shown) [Example 288, N-(1-Amino-4b-hydroxy-7-isopropyl-10-oxo-9b,10-dihydro-4bH-benzo[d]indeno[1,2-b]furan-9b-yl)-2H-indazole-3-carboxamide]
- EC50 (Poliovirus 3; read-out: Poliovirus3 EC50): 0.029 µg/mL (≈ 0.0638 µM)
- Picorana CC50 [4]: >10 µg/mL

Compound: Cc1cc(CCCOc2c(C)cc(-c3noc(C(F)(F)F)n3)cc2C)on1 [Pleconaril, pleconaril]
- oral bioavailability ([5]; oral): very good oral bioavailability
- side effects (rhinovirus infections): side effects were observed
- therapy success (rhinovirus infections): therapy success was too low

Compound: Cc1cc(CCCCCOc2c(Cl)cc(C3=NCCO3)cc2Cl)on1 [WIN 54954]
- metabolization and excretion [5]: rapid metabolization and excretion
- side effects [6]: skin rash

Compound: CCC(=O)C(CCCCCCOc1ccc(OC)cc1Cl)C(=O)CC [arildone, Arildone]
- bioavailability [5]: low bioavailability
- solubility [7]: poor solubility

Compound: Cc1cc(CCCCCCCOc2ccc(C3=NCCO3)cc2)on1 [disoxaril]
- bioavailability [5]: low bioavailability
- metabolization and excretion [5]: rapid metabolization and excretion

— patent publication US9890133B2 (priority 2011, dated 2018)
